Results from publication PMC11189555, “Aryl amino acetamides prevent Plasmodium falciparum ring development via targeting the lipid-transfer protein PfSTART1” (Nature Communications, 2024).
Where “and” joins values, the source holds several entries; their conditions need not be identical. Identical values can stand only once. Like-named read-outs stand apart in the source and are kept apart here.

Columns and labels:
CR-N309K parasites = assay: Growth inhibition assay (72 h, LDH activity); type: cell-based, Plasmodium falciparum; details: for inhibition at 5 µM: read-out: NORMALISED (growth inhibition, LDH absorbance)
Description: (§1) Parasite growth assays with inhibitory compounds were performed as per[11] and are fully described in the Supplementary Information.
(§2) Molecular biology and transfection of P. falciparum: CRISPR method.
(§3) The full 5’ homology region of pfstart1 (either WT, N309K or N330K) was amplified from pPfSTART1-HA-2A-Neo-glmS with the same 5’ BglII primer and a new 3’ primer that replaced with PstI with SpeI and introduced a stop codon. The PCR product was then digested with BglII and SpeI and inserted into similarly digested p1.2 parasite vector2. The p1.2 vector had previously been inserted with a homology region amplified from the 3’ end of the pfstart1 gene (3’HB) to form a second homology block for double recombination. The primers used to amplify 3’HB are listed primers listed in […]
(§4) 60 μg of p1.2-PfSTART1(WT/N309K/N330K) plasmid was linearised with KasI, precipitated in 3 M sodium acetate and ethanol (70% final concentration) overnight at -20°C. The DNA pellet was washed in cold 70% ethanol and resuspended in cytomix 3.
(§5) 50 μ M of crRNA ( Table S 2) and 50 μM of tracRNA (Integrated DNA Technologies) were allowed to form a duplex (5 min at 95°C), and Cas9 enzyme (Integrated DNA Technologies) was added, and incubated for 20 min at room temperature 4. This crRNA -tracRNA -Cas9 mix was added to each DNA preparation and transfected to 3D7 ring parasites using the Bio -Rad Gene Pulser at 310 V and 950 μF.
(§6) Parasites containing the transfected DNA were selected using 2.5 nM WR99210 (Jacobus). Parasites lines were cloned using limiting dilution. Correct integration was tested by PCR (using primer START_5’UTR.F and START_Int.R1 , Table S 2), and sequencing was done using the primers START_3F and START_Int.R2 (Table S 2).
(§7) Growth inhibition assays. Synchronised ring-stage parasites (0.3-0.6% parasitemia, 2% haematocrit) were grown for 72 h in a serial-dilution of the compound under […]
(§8) and compound 4. Note that M-833 was first purchased from MolPort (MolPort -002-267-916) then made in-house at WEHI: the differences observed in EC50s across experiments are attributed to the different batches of M -833. For some experiments, 0, 0.25 or 2.5 mM of glucosamine (GlcN) was also added. Experiments were set up in technical duplicates or triplicates. Following a freeze -thaw cycle, lactate dehydrogenase (LDH) activity was assessed as an indicator of parasite growt h 5. 30 μL of parasite culture was incubated for 30 min in the dark with 75 μL Malstat mixture (0.1 M Tris pH 9.0, 20 g/L lactic acid, pH 7.5, 0.2% Triton-X100, 0.5 g/L acetylpyridine adenine dinucleotide (APAD, Sigma), 200 μg/mL nitroblue tetrazolium (NBT; Sigma), 1 μg/mL phenozine ethosulfate (PES; Sigma)). Absorbance was then measured at 650 nm, transformed using the formula below, plotted against the logarithm of the concentrations, and a non-linear regression (log(inhibitor) vs. response, variable slope) was calculated using GraphPad Prism to assess the half-inhibitory […]
(§9) Growth inhibition % = (1 − average(sample)− average(uRBC)) ∗ 100 […]
(§10) The DMSO samples were also used to assess growth of parasite in the presence of 0.25 and 2.5 mM GlcN (normalised by DMSO in 0 mM GlcN).
(§11) Egress, invasion & recovery assay. To measure egress, invasion and follow up recovery in the presence of different compounds, we adapted the method developed in6, using Hyp1-Nluc parasites7. These parasites episomally express the exported PEXEL protein Hyp1 (PF3D7_0113300) tagged with a NanoLuc luciferase (NLuc) and were selected with 2.5 nM WR99210 (Jacobus). Highly synchronised schizonts were obtained using ML10 (LifeArc) and sorbitol synchronisation, and Percoll-purified (the culture was gently layered over 67% Percoll (Cytiva) in RPMI, and centrifuged for 15 min at 1500 g and the schizont layer was collected and washed). In a 96-well plate, […]

CR-N330K parasites = assay: Growth inhibition assay (72 h, LDH activity); type: cell-based, Plasmodium falciparum
Description: as §1, §2, §3, §4, §5, §6, §7, §8, §9, §10, §11

[1] = 0.25 mM GlcN, dilution point 1 of 10, starting concentration 5 uM
[2] = 0.25 mM GlcN, dilution point 2 of 10 from starting concentration 5 uM
[3] = 0.25 mM GlcN, dilution point 3 of 10 from starting concentration 5 uM
[4] = 0.25 mM GlcN, dilution point 6 of 10 from starting concentration 5 uM
[5] = 2.5 mM GlcN, dilution point 1 of 10, starting concentration 5 uM
[6] = 2.5 mM GlcN, dilution point 2 of 10 from starting concentration 5 uM
[7] = 2.5 mM GlcN, dilution point 3 of 10 from starting concentration 5 uM
[8] = 2.5 mM GlcN, dilution point 4 of 10 from starting concentration 5 uM
[9] = 2.5 mM GlcN, dilution point 5 of 10 from starting concentration 5 uM
[10] = 2.5 mM GlcN, dilution point 6 of 10 from starting concentration 5 uM

## CC(C)(Nc1ccc(Cl)c(S(=O)(=O)N2CCOCC2)c1)C(=O)Nc1ccc(F)c(Cl)c1 [W-991]
CR-N309K parasites; 0 mM GlcN, W991 at 185.185 nM
  NORMALISED (growth inhibition, LDH absorbance vs DMSO and uRBC): 14.1711 and 15.2813
CR-N309K parasites; 0 mM GlcN, W991 at 555.556 nM
  NORMALISED (growth inhibition, LDH absorbance vs DMSO and uRBC): 55.508 and 36.7800
CR-N309K parasites; 0 mM GlcN, W991 at 1666.67 nM
  NORMALISED (growth inhibition, LDH absorbance vs DMSO and uRBC): 87.9679 and 76.9970
CR-N309K parasites; 0 mM GlcN, W991 at 5000 nM
  NORMALISED (growth inhibition, LDH absorbance vs DMSO and uRBC): 96.4706 and 92.1927
CR-N309K parasites; [1]
  NORMALISED (growth inhibition, LDH absorbance): 94.7776
CR-N309K parasites; [2]
  NORMALISED (growth inhibition, LDH absorbance): 100.739 and 90.0516
CR-N309K parasites; [3]
  NORMALISED (growth inhibition, LDH absorbance): 80.0443 and 56.9500
CR-N309K parasites; 0.25 mM GlcN, dilution point 5 of 10 from starting concentration 5 uM
  NORMALISED (growth inhibition, LDH absorbance): 17.9601 and 13.8403
CR-N309K parasites; [4]
  NORMALISED (growth inhibition, LDH absorbance): 8.426 and 8.7470
CR-N309K parasites; [5]
  NORMALISED (growth inhibition, LDH absorbance): 83.5476
CR-N309K parasites; [6]
  NORMALISED (growth inhibition, LDH absorbance): 82.9906
CR-N309K parasites; [7]
  NORMALISED (growth inhibition, LDH absorbance): 95.6522 and 78.1705
CR-N309K parasites; [8]
  NORMALISED (growth inhibition, LDH absorbance): 71.5415 and 48.7789
CR-N309K parasites; [9]
  NORMALISED (growth inhibition, LDH absorbance): 41.502 and 22.2365
CR-N309K parasites; [10]
  NORMALISED (growth inhibition, LDH absorbance): 17.3913 and 10.0471
CR-N309K parasites; 2.5 mM GlcN, dilution point 8 of 10 from starting concentration 5 uM
  NORMALISED (growth inhibition, LDH absorbance): 5.138 and 4.2631
CR-N309K parasites; 2.5 mM GlcN, dilution point 9 of 10 from starting concentration 5 uM
  NORMALISED (growth inhibition, LDH absorbance): 11.3967 and 7.51
CR-N309K parasites; Fig 4C
  fold less susceptible than the 3D7 and CR-WT controls: around 600 fold
  fold sensitised on PfSTART1 knock-down with GlcN: 5 fold
CR-N309K parasites; Fig 4C, 0 mM GlcN, n = 3, read-out: EC50 W-991 (95% confidence interval)
  EC50: < 700 nM
CR-N309K parasites; Plasmodium falciparum, 0.25 mM GlcN, dilution point 1 of 10, starting concentration 5 uM
  inhibition at 5 µM: 101%
CR-N309K parasites; Plasmodium falciparum, 2.5 mM GlcN, dilution point 1 of 10, starting concentration 5 uM
  inhibition at 5 µM: 94.5%
CR-N309K parasites; Plasmodium falciparum, read-out: EC50 W-991 (95% confidence interval), Fig 4C, 0 mM GlcN, n = 3
  EC50: 687 nM
CR-N309K parasites; Plasmodium falciparum, read-out: EC50 W-991 (95% confidence interval), Fig 4C, 0.25 mM GlcN, n = 3
  EC50: 362 nM
CR-N309K parasites; Plasmodium falciparum, read-out: EC50 W-991 (95% confidence interval), Fig 4C, 2.5 mM GlcN, n = 3
  EC50: 137 nM
CR-N309K parasites; read-out: EC50 W-991 (95% confidence interval), Fig 4C, 0 mM GlcN, n = 3
  EC50: 687 nM
CR-N330K parasites; 0 mM GlcN, dilution point 1 of 10, starting concentration 5 uM
  NORMALISED (growth inhibition, LDH absorbance): 89.5809 and 91.9275
CR-N330K parasites; 0 mM GlcN, dilution point 2 of 10 from starting concentration 5 uM
  NORMALISED (growth inhibition, LDH absorbance): 82.5498 and 75.3344
CR-N330K parasites; [1]
  NORMALISED (growth inhibition, LDH absorbance): 90.7025
CR-N330K parasites; [2]
  NORMALISED (growth inhibition, LDH absorbance): 83.8227
CR-N330K parasites; [3]
  NORMALISED (growth inhibition, LDH absorbance): 67.3993 and 45.0538
CR-N330K parasites; [4]
  NORMALISED (growth inhibition, LDH absorbance): 5.889 and 5.4992
CR-N330K parasites; [5]
  NORMALISED (growth inhibition, LDH absorbance): 66.3651 and 90.1101
CR-N330K parasites; [6]
  NORMALISED (growth inhibition, LDH absorbance): 62.0066 and 84.8366
CR-N330K parasites; [7]
  NORMALISED (growth inhibition, LDH absorbance): 63.3224 and 83.4457
CR-N330K parasites; [8]
  NORMALISED (growth inhibition, LDH absorbance): 52.3849 and 74.2725
CR-N330K parasites; [9]
  NORMALISED (growth inhibition, LDH absorbance): 40.7072 and 51.6938
CR-N330K parasites; [10]
  NORMALISED (growth inhibition, LDH absorbance): 28.9474 and 29.6954
